According to patent US20220008508A1, “RELAXIN RECEPTOR 1 FOR USE IN TREATMENT AND PREVENTION OF HEART FAILURE” (Universität Heidelberg, priority 2018, published 2022):

Columns and labels:
rat RXFP1 = target: T1, rat RXFP1 (Rattus norvegicus, UniProt Q6R6I6); assay: P-PLB(S16) immunoblot in NRVMs transduced with rat RXFP1 virus; format: cell-based; details: 1 μM ML290 for 30 minutes
T1 construct: expressed in transfected cells
T1 sequence (Q6R6I6 1-758): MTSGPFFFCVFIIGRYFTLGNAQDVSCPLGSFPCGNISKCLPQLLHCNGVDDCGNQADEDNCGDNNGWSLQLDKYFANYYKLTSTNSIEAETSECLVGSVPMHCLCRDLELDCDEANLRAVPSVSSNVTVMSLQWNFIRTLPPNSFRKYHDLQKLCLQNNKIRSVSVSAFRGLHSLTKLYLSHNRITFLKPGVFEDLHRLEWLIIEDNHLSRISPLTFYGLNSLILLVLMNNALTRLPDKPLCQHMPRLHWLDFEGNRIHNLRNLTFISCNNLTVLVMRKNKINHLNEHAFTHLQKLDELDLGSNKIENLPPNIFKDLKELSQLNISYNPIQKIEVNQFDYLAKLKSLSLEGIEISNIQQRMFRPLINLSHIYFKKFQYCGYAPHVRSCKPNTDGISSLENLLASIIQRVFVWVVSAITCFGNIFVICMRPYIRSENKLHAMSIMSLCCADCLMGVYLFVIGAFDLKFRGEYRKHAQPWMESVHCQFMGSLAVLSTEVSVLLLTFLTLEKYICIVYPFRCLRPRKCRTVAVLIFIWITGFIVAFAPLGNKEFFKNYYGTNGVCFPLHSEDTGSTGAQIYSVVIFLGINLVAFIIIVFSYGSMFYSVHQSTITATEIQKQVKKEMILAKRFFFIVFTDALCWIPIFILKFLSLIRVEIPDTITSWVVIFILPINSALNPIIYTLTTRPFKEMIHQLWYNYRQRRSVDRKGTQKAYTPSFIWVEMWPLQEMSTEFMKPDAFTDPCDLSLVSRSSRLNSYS
From the text: (§1) Images were processed using Odyssey imaging software.

human RXFP1 = target: T2, human RXFP1 (Homo sapiens, UniProt Q9HBX9); assay: P-PLB(S16) immunoblot in NRVMs transduced with human RXFP1 virus; format: cell-based, rat
T2 construct: synthesized and cloned into a pCDNA3.1 plasmid with N-terminal FLAG-TAG; expressed in transfected cells; host or cells: neonatal rat ventricular cardiomyocytes (NRVMs) transduced with AAV6-huRXFP1
T2 sequence (Q9HBX9 other isoform, or with tags, fused parts or gaps): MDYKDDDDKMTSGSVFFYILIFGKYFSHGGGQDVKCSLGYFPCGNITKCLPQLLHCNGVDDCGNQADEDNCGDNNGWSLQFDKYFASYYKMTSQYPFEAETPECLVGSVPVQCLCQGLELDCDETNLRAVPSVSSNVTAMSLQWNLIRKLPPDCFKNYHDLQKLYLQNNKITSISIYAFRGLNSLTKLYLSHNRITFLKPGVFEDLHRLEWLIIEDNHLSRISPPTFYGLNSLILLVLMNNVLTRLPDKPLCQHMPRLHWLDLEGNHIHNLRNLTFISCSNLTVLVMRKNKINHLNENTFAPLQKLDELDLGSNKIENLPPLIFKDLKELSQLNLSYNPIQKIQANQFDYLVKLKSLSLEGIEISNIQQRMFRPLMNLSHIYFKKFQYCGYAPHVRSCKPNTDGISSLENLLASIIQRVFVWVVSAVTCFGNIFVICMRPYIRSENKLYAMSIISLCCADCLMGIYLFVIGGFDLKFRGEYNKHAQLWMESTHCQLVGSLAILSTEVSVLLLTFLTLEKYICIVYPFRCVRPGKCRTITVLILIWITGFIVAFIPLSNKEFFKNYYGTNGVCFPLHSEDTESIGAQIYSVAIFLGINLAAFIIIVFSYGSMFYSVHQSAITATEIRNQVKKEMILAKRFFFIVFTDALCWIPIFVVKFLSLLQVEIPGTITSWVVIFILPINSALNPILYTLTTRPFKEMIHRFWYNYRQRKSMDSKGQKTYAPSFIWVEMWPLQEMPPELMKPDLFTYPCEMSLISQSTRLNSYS
From the text: as §1

[1] = target: rat (Rattus norvegicus) relaxin receptor 1 (RXFP1) with N-terminal FLAG-TAG, expressed in neonatal rat ventricular cardiomyocytes from AAV6-CMV-MLC260-FLAG-Rel1 Rattus (Rattus norvegicus) (UniProt Q6R6I6); assay: cell-based or functional assay

Molecule	P-PLB(S16) (rat RXFP1)	P-PLB(S16), 1 μM ML290 vs 100 nM recombinant RLN (human RXFP1)	P-PLB(S16) (human RXFP1; 1 μM ML290 for 30 minutes)	RLN concentration of peak cAMP stimulation in transduced NRVMs [1] [nM]
CC(C)Oc1ccccc1C(=O)Nc1ccccc1C(=O)Nc1cccc(S(=O)(=O)C(F)(F)F)c1 [ML290, 2-Isopropoxy-N-(2-(3-(trifluoromethylsulfonyl)phenylcarbamoyl)phenyl)benzamide]	Marked increase	No difference	Significant increase	
recombinant relaxin H2 (from UniProt P04090 25-53; P04090 162-185) (ligand)				10
